Laboratory results from US8329746B2, “Method for treating osteoarthritis” (CaloSyn Pharma, Inc., priority 2005, dated 2012).

System: synovial lining cells
Details: human

COc1ccc(CCN(C)CCCC(C#N)(c2ccc(OC)c(OC)c2)C(C)C)cc1OC (centres unmarked) [verapamil]
concentration that must not be exceeded in compositions (harmful effects on synovial cells): ≤ 2000 µg/mL

CCN(CC)CCNC(=O)c1ccc(N)cc1 [procainamide]
concentration that must not be exceeded in compositions (harmful effects on synovial cells): ≤ 2000 µg/mL
